Assay results published in paper PMC10175918 (Communications Biology, 2023).
Read-outs that look alike come from different tables or passages of the source.

Key:
Assay in all cases: TGFα-shedding assay-based GPCR screening with chimeric Gα subunit proteins
Format in all cases: cell-based
348 GPCRs [1] = biological target: T1, 348 GPCRs (Homo sapiens, UniProt Q9UKP6); conditions: 10µM, Favipiravir 100μM
T1 construct: expressed in transfected cells; host or cells: HEK293A
T1 sequence (Q9UKP6 1-389): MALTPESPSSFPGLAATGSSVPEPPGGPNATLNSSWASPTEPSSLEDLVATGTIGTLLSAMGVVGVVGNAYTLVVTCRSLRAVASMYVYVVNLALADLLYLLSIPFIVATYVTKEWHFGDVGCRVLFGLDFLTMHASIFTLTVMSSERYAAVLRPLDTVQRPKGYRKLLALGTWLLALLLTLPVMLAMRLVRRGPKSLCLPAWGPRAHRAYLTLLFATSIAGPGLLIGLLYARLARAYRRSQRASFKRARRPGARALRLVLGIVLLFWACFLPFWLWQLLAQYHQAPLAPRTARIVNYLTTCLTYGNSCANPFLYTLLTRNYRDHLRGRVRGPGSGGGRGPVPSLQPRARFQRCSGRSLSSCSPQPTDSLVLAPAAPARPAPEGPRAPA

348 GPCRs [2] = biological target: T2, 348 GPCRs (Homo sapiens, UniProt Q92633); conditions: 10µM, Favipiravir 100μM
T2 construct: expressed in transfected cells; host or cells: HEK293A

348 GPCRs [3] = biological target: T3, 348 GPCRs (Homo sapiens, UniProt O14804); conditions: 10µM, Favipiravir 100μM
T3 construct: expressed in transfected cells; host or cells: HEK293A
T3 sequence (O14804 1-337): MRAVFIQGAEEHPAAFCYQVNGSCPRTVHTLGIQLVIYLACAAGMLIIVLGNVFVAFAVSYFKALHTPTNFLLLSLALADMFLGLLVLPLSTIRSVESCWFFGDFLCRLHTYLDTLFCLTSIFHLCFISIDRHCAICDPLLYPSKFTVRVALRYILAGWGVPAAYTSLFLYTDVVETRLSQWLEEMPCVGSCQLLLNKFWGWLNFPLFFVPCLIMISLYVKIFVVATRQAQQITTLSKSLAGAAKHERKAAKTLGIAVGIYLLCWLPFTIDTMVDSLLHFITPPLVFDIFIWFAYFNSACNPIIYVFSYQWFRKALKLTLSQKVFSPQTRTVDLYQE

348 GPCRs [4] = biological target: 348 GPCRs (Homo sapiens, UniProt Q8IYL9); conditions: GPCR GPR65 (G protein-coupled receptor 65)
348 GPCRs [5] = biological target: T4, 348 GPCRs (Homo sapiens, UniProt P13945); conditions: 10µM, Favipiravir 100μM
T4 construct: expressed in transfected cells; host or cells: HEK293A

348 GPCRs [6] = biological target: T5, 348 GPCRs (Homo sapiens, UniProt O14842); conditions: 10µM, Favipiravir 100μM
T5 construct: expressed in transfected cells; host or cells: HEK293A

348 GPCRs [7] = biological target: T6, 348 GPCRs (Homo sapiens, UniProt O95136); conditions: 10µM, Favipiravir 100μM
T6 construct: expressed in transfected cells; host or cells: HEK293A

348 GPCRs [8] = biological target: T7, 348 GPCRs (Homo sapiens, UniProt P08908); conditions: 10µM, Favipiravir 100μM
T7 construct: expressed in transfected cells; host or cells: HEK293A
T7 sequence (P08908 1-422): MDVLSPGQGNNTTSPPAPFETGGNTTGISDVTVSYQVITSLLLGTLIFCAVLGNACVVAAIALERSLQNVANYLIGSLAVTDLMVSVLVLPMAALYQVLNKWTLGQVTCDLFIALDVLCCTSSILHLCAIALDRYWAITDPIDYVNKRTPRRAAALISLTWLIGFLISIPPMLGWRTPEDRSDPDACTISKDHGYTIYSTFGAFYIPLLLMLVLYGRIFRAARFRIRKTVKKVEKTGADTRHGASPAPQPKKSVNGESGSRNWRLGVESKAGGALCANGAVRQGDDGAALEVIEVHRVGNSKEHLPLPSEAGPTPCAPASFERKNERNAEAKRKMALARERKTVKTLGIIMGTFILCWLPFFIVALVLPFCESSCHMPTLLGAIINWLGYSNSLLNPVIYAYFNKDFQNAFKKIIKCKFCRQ

348 GPCRs [9] = biological target: T8, 348 GPCRs (Homo sapiens, UniProt Q16538); conditions: 10µM, Favipiravir 100μM
T8 construct: expressed in transfected cells; host or cells: HEK293A

348 GPCRs [10] = biological target: T9, 348 GPCRs (Homo sapiens, UniProt Q14330); conditions: GPR18 (G protein-coupled receptor 18); 10µM, Favipiravir 100μM
T9 construct: expressed in transfected cells; host or cells: HEK293A
T9 sequence (Q14330 1-331): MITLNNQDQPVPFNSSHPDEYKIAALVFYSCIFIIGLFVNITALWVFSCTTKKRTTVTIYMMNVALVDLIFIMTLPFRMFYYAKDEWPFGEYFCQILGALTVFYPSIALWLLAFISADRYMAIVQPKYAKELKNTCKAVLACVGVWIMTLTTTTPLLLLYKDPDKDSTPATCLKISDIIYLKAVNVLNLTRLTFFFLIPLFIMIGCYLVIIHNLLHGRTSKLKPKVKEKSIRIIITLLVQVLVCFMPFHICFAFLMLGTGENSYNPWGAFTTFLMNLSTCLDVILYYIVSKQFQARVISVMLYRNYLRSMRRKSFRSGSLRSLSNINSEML

[11] = UTS2R (urotensin 2 receptor), read-out: % GPCR activation compared to TPA
[12] = LPAR1 (lysophosphatidic acid receptor 1), read-out: % GPCR activation compared to TPA
[13] = TAAR5 (trace amine associated receptor 5), read-out: % GPCR activation compared to TPA
[14] = ADRB3 (adrenoceptor beta 3), read-out: % GPCR activation compared to TPA
[15] = FFA1 (free fatty acid receptor 1), read-out: % GPCR activation compared to TPA
[16] = S1PR2 (sphingosine-1-phosphate receptor 2), read-out: % GPCR activation compared to TPA
[17] = 5-HT1A (5-hydroxytryptamine receptor 1A), read-out: % GPCR activation compared to TPA
[18] = GPR162 (G Protein-Coupled Receptor 162), read-out: % GPCR activation compared to TPA
[19] = read-out: % GPCR activation compared to TPA, UTS2R (urotensin 2 receptor)
[20] = read-out: % GPCR activation compared to TPA, LPAR1 (lysophosphatidic acid receptor 1)
[21] = read-out: % GPCR activation compared to TPA, TAAR5 (trace amine associated receptor 5)
[22] = read-out: % GPCR activation compared to TPA, ADRB3 (adrenoceptor beta 3)
[23] = read-out: % GPCR activation compared to TPA, FFA1 (free fatty acid receptor 1)
[24] = read-out: % GPCR activation compared to TPA, S1PR2 (sphingosine-1-phosphate receptor 2)
[25] = read-out: % GPCR activation compared to TPA, 5-HT1A (5-hydroxytryptamine receptor 1A)
[26] = read-out: % GPCR activation compared to TPA, GPR162 (G Protein-Coupled Receptor 162)

T2 sequence (Q92633 whole entry): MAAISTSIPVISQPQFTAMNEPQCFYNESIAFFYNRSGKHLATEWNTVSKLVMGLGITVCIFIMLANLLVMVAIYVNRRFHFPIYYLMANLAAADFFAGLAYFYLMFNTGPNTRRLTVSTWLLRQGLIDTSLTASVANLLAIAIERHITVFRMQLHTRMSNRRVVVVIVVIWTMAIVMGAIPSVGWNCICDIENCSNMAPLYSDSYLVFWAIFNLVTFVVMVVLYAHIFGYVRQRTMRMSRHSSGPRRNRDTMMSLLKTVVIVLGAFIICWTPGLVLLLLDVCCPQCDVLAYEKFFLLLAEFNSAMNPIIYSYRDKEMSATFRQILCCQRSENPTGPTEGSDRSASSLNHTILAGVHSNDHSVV
T8 sequence (Q16538 whole entry): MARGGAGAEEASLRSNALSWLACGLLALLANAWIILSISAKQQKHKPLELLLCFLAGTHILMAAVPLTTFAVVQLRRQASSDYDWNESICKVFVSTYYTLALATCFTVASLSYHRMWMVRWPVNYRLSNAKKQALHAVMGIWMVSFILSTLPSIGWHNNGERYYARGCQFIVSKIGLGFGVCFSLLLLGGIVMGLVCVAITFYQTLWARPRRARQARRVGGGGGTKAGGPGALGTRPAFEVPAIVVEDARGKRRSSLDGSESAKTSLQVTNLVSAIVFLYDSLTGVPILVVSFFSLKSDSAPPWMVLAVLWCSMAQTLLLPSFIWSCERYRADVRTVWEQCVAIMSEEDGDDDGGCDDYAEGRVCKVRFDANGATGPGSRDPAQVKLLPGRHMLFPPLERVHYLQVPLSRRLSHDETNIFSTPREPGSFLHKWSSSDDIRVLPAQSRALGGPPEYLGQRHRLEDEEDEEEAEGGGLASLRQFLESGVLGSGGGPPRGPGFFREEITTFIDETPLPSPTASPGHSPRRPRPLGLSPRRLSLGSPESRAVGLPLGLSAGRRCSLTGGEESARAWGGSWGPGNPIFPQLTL
Sequence of 348 GPCRs (Homo sapiens, UniProt Q8IYL9) (Q8IYL9 whole entry): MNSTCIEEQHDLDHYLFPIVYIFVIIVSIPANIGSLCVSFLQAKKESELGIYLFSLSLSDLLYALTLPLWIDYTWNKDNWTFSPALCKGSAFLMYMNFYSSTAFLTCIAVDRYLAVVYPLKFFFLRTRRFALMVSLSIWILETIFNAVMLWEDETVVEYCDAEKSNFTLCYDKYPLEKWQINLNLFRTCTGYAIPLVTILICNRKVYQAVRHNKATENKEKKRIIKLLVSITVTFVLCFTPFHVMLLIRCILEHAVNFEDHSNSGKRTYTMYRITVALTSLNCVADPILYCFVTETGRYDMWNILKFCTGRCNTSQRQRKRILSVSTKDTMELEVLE
T6 sequence (O95136 whole entry): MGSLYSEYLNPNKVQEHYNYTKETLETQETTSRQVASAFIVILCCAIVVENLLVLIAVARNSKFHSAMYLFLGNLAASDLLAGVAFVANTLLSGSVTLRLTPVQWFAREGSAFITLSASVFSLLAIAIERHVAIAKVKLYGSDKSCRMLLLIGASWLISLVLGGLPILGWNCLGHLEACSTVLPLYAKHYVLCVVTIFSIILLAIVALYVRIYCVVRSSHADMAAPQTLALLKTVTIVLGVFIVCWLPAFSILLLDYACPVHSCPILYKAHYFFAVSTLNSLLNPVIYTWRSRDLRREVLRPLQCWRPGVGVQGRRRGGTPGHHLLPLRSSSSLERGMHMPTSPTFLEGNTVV
T5 sequence (O14842 whole entry): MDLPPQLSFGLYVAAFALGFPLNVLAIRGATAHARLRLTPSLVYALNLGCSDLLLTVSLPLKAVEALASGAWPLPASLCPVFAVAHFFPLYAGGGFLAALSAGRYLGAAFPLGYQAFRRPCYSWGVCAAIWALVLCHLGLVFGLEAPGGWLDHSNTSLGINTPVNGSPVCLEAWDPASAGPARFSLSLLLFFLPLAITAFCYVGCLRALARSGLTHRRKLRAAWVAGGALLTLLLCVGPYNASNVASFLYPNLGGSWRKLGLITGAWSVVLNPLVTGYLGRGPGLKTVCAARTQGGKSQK
T4 sequence (P13945 whole entry): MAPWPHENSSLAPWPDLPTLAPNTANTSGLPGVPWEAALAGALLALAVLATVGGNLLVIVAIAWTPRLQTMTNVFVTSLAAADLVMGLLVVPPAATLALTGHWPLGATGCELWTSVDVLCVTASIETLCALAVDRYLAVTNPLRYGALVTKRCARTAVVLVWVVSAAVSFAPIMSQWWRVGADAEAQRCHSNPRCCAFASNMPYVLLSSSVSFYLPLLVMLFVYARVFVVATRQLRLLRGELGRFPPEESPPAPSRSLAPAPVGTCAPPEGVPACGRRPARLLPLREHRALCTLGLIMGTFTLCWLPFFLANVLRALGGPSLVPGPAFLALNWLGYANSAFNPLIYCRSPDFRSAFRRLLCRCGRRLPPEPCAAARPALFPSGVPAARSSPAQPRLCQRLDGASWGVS

Row | SMILES | activation at 10 µM (348 GPCRs [1]; [11]) | activation at 10 µM (348 GPCRs [2]; [12]) | activation at 100 µM (348 GPCRs [3]; [13]) | % GPCR activation compared to TPA (348 GPCRs [4]; 10µM) | activation at 10 µM (348 GPCRs [5]; [14]) | activation at 10 µM (348 GPCRs [6]; [15]) | activation at 10 µM (348 GPCRs [7]; [16]) | activation at 10 µM (348 GPCRs [8]; [17]) | activation at 10 µM (348 GPCRs [9]; [18]) | % GPCR activation compared to TPA (348 GPCRs [10]) | activation at 10 µM (348 GPCRs [1]; [19]) | activation at 10 µM (348 GPCRs [2]; [20]) | activation at 100 µM (348 GPCRs [3]; [21]) | activation at 10 µM (348 GPCRs [5]; [22]) | activation at 10 µM (348 GPCRs [6]; [23]) | activation at 10 µM (348 GPCRs [7]; [24]) | activation at 10 µM (348 GPCRs [8]; [25]) | activation at 10 µM (348 GPCRs [9]; [26]) | % GPCR activation compared to TPA (348 GPCRs [4]; 100μM)
1 | N#C[C@@]1(c2ccc3c(N)ncnn23)O[C@H](CO)[C@@H](O)[C@H]1O [GS441524] | -11.4% | 1.19% | 0.608% | -3.0793% | 0.201% | -14.2% | -1.37% | -0.48% | -0.758% | 2.081% | – | – | – | – | – | – | – | – | –
2 | CCC(CC)COC(=O)[C@H](C)N[P@](=O)(OC[C@H]1O[C@@](C#N)(c2ccc3c(N)ncnn23)[C@H](O)[C@@H]1O)Oc1ccccc1 [remdesivir] | – | – | – | -1.387% | – | – | – | – | – | 1.118% | 46.9% | 0.719% | 0.868% | -0.789% | -6.96% | -3.06% | 1.91% | 2.55% | –
3 | CC(C)OC(=O)[C@H](C)N[P@](=O)(OC[C@H]1O[C@@H](n2ccc(=O)[nH]c2=O)[C@](C)(F)[C@@H]1O)Oc1ccccc1 [sofosbuvir] | – | – | – | -10.455% | – | – | – | – | – | -3.042% | -2.85% | 3.41% | -2.96% | -0.333% | -1.47% | 0.199% | -0.274% | 0.48% | –
4 | NC(=O)c1nc(F)cnc1O [favipiravir, 6-fluoro-3-hydroxy-2-pyrazinecarboxamide] | -4.11% | 0.687% | -0.417% | – | -0.975% | -4.93% | -1.8% | -0.504% | -1.13% | -1% | – | – | – | – | – | – | – | – | 1.278%
5 | CC(C)C(=O)OC[C@H]1O[C@@H](n2ccc(NO)nc2=O)[C@H](O)[C@@H]1O [molnupiravir] | -8.44% | -1.42% | -1.58% | -8.376% | -0.737% | -2.86% | -2.13% | -1.27% | -1.64% | -5.385% | – | – | – | – | – | – | – | – | –
